Earlier results in patent US20160220569A1, “CDK4/6 Inhibitor Dosage Formulations For The Protection Of Hematopoietic Stem And Progenitor Cells During Chemotherapy” (G1 Therapeutics, Inc., priority 2015, published 2016).
Read-outs that look alike come from different tables or passages of the source.

Legend:
[1] = cited from earlier work
[2] = cited from earlier work; remark: listed apart in the source
[3] = Grade 3/4 neutropenia and leukopenia with palbociclib

SMILES: CCN1CCN(Cc2ccc(Nc3ncc(F)c(-c4cc(F)c5nc(C)n(C(C)C)c5c4)n3)nc2)CC1 [Abemaciclib]
- diarrhea in clinical trials ([1]; abemaciclib, gastrointestinal toxicity): greater than 50%

SMILES: CC(=O)c1c(C)c2cnc(Nc3ccc(N4CCNCC4)cn3)nc2n(C2CCCC2)c1=O [palbociclib, 6-acetyl-8-cyclopentyl-5-methyl-2-(5-piperazin-1-yl-pyridin-2-ylammino)-8H-pyrido-[2,3-d]-pyrimidin-7-one]
- AUC (0-10) ([2]; 100 mg QD, Day 1): 333 ng·h/mL
- Cmax ([2]; 100 mg QD, Day 1): 44 ng/mL
- Tmax ([2]; 100 mg QD, Day 1): 4 h
- AUC (0-10) ([2]; 100 mg QD, Day 8): 433 ng·h/mL
- Cmax ([2]; 100 mg QD, Day 8): 58 ng/mL
- Tmax ([2]; 100 mg QD, Day 8): 4 h
- AUC (0-10) ([2]; 150 mg QD, Day 1): 622 ng·h/mL
- Cmax ([2]; 150 mg QD, Day 1): 78 ng/mL
- Tmax ([2]; 150 mg QD, Day 1): 6 h
- AUC (0-10) ([2]; 150 mg QD, Day 8): 1599 ng·h/mL
- Cmax ([2]; 150 mg QD, Day 8): 194 ng/mL
- Tmax ([2]; 150 mg QD, Day 8): 7 h
- AUC(0-inf) ([2]; 150 mg oral): 2002 n*hr/ml
- CL/F ([2]; 150 mg oral): 88.5 L/h
- Cmax ([2]; 150 mg oral): 78 ng/mL
- T1/2 ([2]; 150 mg oral): 26.7 h
- AUC (0-10) ([2]; 200 mg QD, Day 1): 525 ng·h/mL
- Cmax ([2]; 200 mg QD, Day 1): 81 ng/mL
- Tmax ([2]; 200 mg QD, Day 1): 5.7 h
- AUC (0-10) ([2]; 200 mg QD, Day 8): 1395 ng·h/mL
- Cmax ([2]; 200 mg QD, Day 8): 174 ng/mL
- Tmax ([2]; 200 mg QD, Day 8): 4 h
- AUC (0-10) ([2]; 225 mg QD, Day 1): 718 ng·h/mL
- Cmax ([2]; 225 mg QD, Day 1): 104 ng/mL
- Tmax ([2]; 225 mg QD, Day 1): 4 h
- AUC (0-10) ([2]; 225 mg QD, Day 8): 1491 ng·h/mL
- Cmax ([2]; 225 mg QD, Day 8): 186 ng/mL
- Tmax ([2]; 225 mg QD, Day 8): 4.5 h
- T1/2 ([2]; palbociclib, literature): roughly 26.7 hours
- patients requiring a dose interruption [1, 3]: 71%
- patients requiring a dose reduction [1, 3]: 35%

SMILES: CN(C)C(=O)c1cc2cnc(Nc3ccc(N4CCNCC4)cn3)nc2n1C1CCCC1 [ribociclib]
- associated adverse effect ([1]; ribociclib administration): QT prolongation
